Consider 31 compounds from patent US10988459B2 (priority 2015, dated 2021).

Each structure is given as a SMILES string.

Sequence of human RIP1 kinase domain (2-375) (Q13546 2-375): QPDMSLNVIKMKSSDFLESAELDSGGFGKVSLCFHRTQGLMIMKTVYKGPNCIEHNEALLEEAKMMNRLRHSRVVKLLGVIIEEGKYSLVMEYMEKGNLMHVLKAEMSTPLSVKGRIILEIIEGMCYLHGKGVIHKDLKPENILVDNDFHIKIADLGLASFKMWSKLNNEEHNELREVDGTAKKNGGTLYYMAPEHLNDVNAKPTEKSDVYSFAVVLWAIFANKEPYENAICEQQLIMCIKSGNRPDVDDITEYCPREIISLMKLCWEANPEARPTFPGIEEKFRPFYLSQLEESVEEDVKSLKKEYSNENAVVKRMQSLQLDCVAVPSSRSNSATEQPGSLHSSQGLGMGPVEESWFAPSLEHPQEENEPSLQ

One assay has as its target human RIP1 kinase domain (2-375) (Homo sapiens (Human), UniProt Q13546). In words: biochemical. The note with it: Ki. In kind it is biochemical. The essentials: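 50 nM purified kinase domain from baculovirus-infected insect cells, incubated 2 h with compound in 50 mM Hepes pH 7.5, 30 mM MgCl2, 1 mM DTT, 50 uM ATP, 0.002% Brij-35, 0.5% DMSO. ADP formation read by Transcreener FP at 633 nm excitation. Ki^app fitted with the Morrison tight-binding equation.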
The compound `CN1C(=O)[C@@H](NC(=O)c2ncc3cnn(C4CCOCC4)c3n2)COc2ccccc21` [Example 558, N-[(3S)-5-methyl-4-oxo-2,3-dihydro-1,5-benzoxazepin-3-yl]-1-tetrahydropyran-4-yl-pyrazolo[3,4-d]pyrimidine-6-carboxamide] registered a Ki of 39 nM.

The assay is the same for the next values; noted with them: tight-binding apparent inhibition constant; human RIP1 kinase domain (2-375) 50 nM, 50 uM ATP, 2 hours; read-out: Ki.
Regarding `CN1C(=O)[C@@H](NC(=O)c2ncc3cnn(-c4ccccc4)c3n2)COc2ccccc21` [Example 536, phenyl-N-[(3S)-5-methyl-4-oxo-2,3-dihydro-1,5-benzoxazepin-3-yl]pyrazolo[3,4-d]pyrimidine-6-carboxamide], the Ki was 3.5 nM. Same read-out and setting: as for `CN1C(=O)[C@@H](NC(=O)c2nccc(C3(O)CCC3)n2)COc2ccccc21` [Example 537, 4-(1-hydroxycyclobutyl)-N-[(3S)-5-methyl-4-oxo-2,3-dihydro-1,5-benzoxazepin-3-yl]pyrimidine-2-carboxamide], the figure is 2100 nM. On the same count and under the same terms, as for `CN1C(=O)[C@@H](NC(=O)c2ncn(Cc3cccc(Cl)c3)n2)CCn2nc(C3CC3)cc21` [Example 538], the figure is 19 nM. Same read-out and setting: the figure for `Cc1cc2n(n1)CC[C@H](NC(=O)c1ncc3cnn(C(C)C)c3n1)C(=O)N2C` [Example 539, 1-isopropyl-N-[(6S)-2,4-dimethyl-5-oxo-7,8-dihydro-6H-pyrazolo[1,5-a][1,3]diazepin-6-yl]pyrazolo[3,4-d]pyrimidine-6-carboxamide] is 150 nM. On to `Cc1cc2n(n1)CC[C@H](NC(=O)c1ncc3cnn(-c4ccccc4)c3n1)C(=O)N2C` [Example 540, 1-phenyl-N-[(6S)-2,4-dimethyl-5-oxo-7,8-dihydro-6H-pyrazolo[1,5-a][1,3]diazepin-6-yl]pyrazolo[3,4-d]pyrimidine-6-carboxamide], for which the Ki amounted to 57 nM. `Cc1cc2n(n1)CC[C@H](NC(=O)c1nnn(Cc3ccccc3)n1)C(=O)N2C` [Example 541, 2-benzyl-N-(6S)-2,4-dimethyl-5-oxo-7,8-dihydro-6H-pyrazolo[1,5-a][1,3]diazepin-6-yltetrazole-5-carboxamide]: the Ki came out at 5 nM. In the case of `CN1C(=O)[C@@H](NC(=O)c2nnn(Cc3ccccc3)n2)CCn2nc(C3CC3)cc21` [Example 542], the Ki was 6.4 nM.

For the compound `Cc1cc2n(n1)CC[C@H](NC(=O)c1ncc3cnn(C4CCCC4)c3n1)C(=O)N2C` [Example 543, 1-cyclopentyl-N-[(6S)-2,4-dimethyl-5-oxo-7,8-dihydro-6H-pyrazolo[1,5-a][1,3]diazepin-6-yl]pyrazolo[3,4-d]pyrimidine-6-carboxamide], the Ki amounted to 68 nM. In the case of `Cc1cc2n(n1)CC[C@H](NC(=O)c1ncc3c(n1)C1(CCCOC1)OC3)C(=O)N2C` (stereo partly drawn) [Example 544, N-[(6S)-2,4-dimethyl-5-oxo-7,8-dihydro-6H-pyrazolo[1,5-a][1,3]diazepin-6-yl]spiro[5H-furo[3,4-d]pyrimidine-7,3′-tetrahydropyran]-2-carboxamide], the Ki stood at 1200 nM. On the same count and under the same terms, the figure for `Cc1cc2n(n1)CC[C@H](NC(=O)c1cc3c(cn1)COC31CCCOC1)C(=O)N2C` (stereo partly drawn) [Example 545, N-[(6S)-2,4-dimethyl-5-oxo-7,8-dihydro-6H-pyrazolo[1,5-a][1,3]diazepin-6-yl]spiro[3H-furo[3,4-c]pyridine-1,3′-tetrahydropyran]-6-carboxamide] is 2100 nM.

Regarding `Cc1cnc2n1CCC(NC(=O)c1ncn(Cc3ccccc3)n1)C(=O)N2C` (stereo not shown) [Example 546, 1-benzyl-N-(3,9-dimethyl-8-oxo-6,7-dihydro-5H-imidazo[1,2-a][1,3]diazepin-7-yl)-1,2,4-triazole-3-carboxamide], the Ki amounted to 220 nM. Still for that read-out and setting: the figure for `CN1C(=O)[C@@H](NC(=O)c2ncn(Cc3ccccc3)n2)CCn2nc(C[C@H]3CC3(F)F)cc21` [Example 547, 1-benzyl-N-(6S)-4-methyl-5-oxo-2-[(1 S)-2,2-difluorocyclopropylmethyl]-7,8-dihydro-6H-pyrazolo[1,5-a][1,3]diazepin-6-yl-1,2,4-triazole-3-carboxamide] is 8.5 nM; for `CN1C(=O)[C@@H](NC(=O)c2ncn(Cc3ccccc3)n2)CCn2nc(C[C@@H]3CC3(F)F)cc21` [Example 548, 1-benzyl-N-(6S)-4-methyl-5-oxo-2-[(1R)-2,2-difluorocyclopropylmethyl]-7,8-dihydro-6H-pyrazolo[1,5-a][1,3]diazepin-6-yl-1,2,4-triazole-3-carboxamide] it is 9.7 nM; for `CCC(C)(O)c1ccnc(C(=O)N[C@H]2COc3ccccc3N(C)C2=O)n1` (stereo partly drawn) [Example 549, 4-(1-hydroxy-1-methyl-propyl)-N-[(3S)-5-methyl-4-oxo-2,3-dihydro-1,5-benzoxazepin-3-yl]pyrimidine-2-carboxamide] it is 3700 nM. Same read-out and setting: as for `CN1C(=O)[C@H](NC(=O)c2nnc(Cc3ccc(F)cc3)[nH]2)CCn2nc(C(F)(F)F)cc21` [Example 550], the figure is 210 nM; as for `Cc1cc2n(n1)CC[C@H](NC(=O)c1ncc3c(n1)C1(CCOC1)OC3)C(=O)N2C` (stereo partly drawn) [Example 551, N-[(6S)-2,4-dimethyl-5-oxo-7,8-dihydro-6H-pyrazolo[1,5-a][1,3]diazepin-6-yl]spiro[5H-furo[3,4-d]pyrimidine-7,3′-tetrahydrofuran]-2-carboxamide], 960 nM; as for `Cc1cc2n(n1)CC[C@H](NC(=O)c1ncc3c(n1)C1(CCCC1)OC3)C(=O)N2C` [Example 552, N-[(6S)-2,4-dimethyl-5-oxo-7,8-dihydro-6H-pyrazolo[1,5-a][1,3]diazepin-6-yl]spiro[5H-furo[3,4-d]pyrimidine-7,1′-cyclopentane]-2-carboxamide], 110 nM. On the same count and under the same terms, the figure for `CN1C(=O)[C@@H](NC(=O)c2nc3n(n2)CCCC3c2ccccc2)COc2ccccc21` (stereo partly drawn) [Example 553, 8-phenyl-N-[(3S)-5-methyl-4-oxo-2,3-dihydro-1,5-benzoxazepin-3-yl]-5,6,7,8-tetrahydro-[1,2,4]triazolo[1,5-a]pyridine-2-carboxamide] is 8.7 nM; for `Cc1cc2n(n1)CC[C@H](NC(=O)c1nc3n(n1)CCCC3c1ccccc1)C(=O)N2C` (stereo partly drawn) [Example 554, 8-phenyl-N-[(6S)-2,4-dimethyl-5-oxo-7,8-dihydro-6H-pyrazolo[1,5-a][1,3]diazepin-6-yl]-5,6,7,8-tetrahydro-[1,2,4]triazolo[1,5-a]pyridine-2-carboxamide] it is 330 nM.

Regarding `Cc1cc2n(n1)CC[C@H](NC(=O)c1ncn(CC3CC(C)(C)C3)n1)C(=O)N2C` [Example 555, 1-[(3,3-dimethylcyclobutyl)methyl]-N-(6S)-2,4-dimethyl-5-oxo-7,8-dihydro-6H-pyrazolo[1,5-a][1,3]diazepin-6-yl-1,2,4-triazole-3-carboxamide], the Ki was determined as 43 nM. Same read-out and setting: as for `CN1C(=O)[C@@H](NC(=O)c2ncc3c(n2)C(C)(C)S(=O)(=O)C3)COc2ccccc21` [Example 556, 7,7-dimethyl-6,6-dioxo-N-[(3S)-5-methyl-4-oxo-2,3-dihydro-1,5-benzoxazepin-3-yl]-5H-thieno[3,4-d]pyrimidine-2-carboxamide], the figure is 2700 nM; as for `Cc1cc2n(n1)CC[C@H](NC(=O)c1ncc3cnn(C4CCOCC4)c3n1)C(=O)N2C` [Example 559, N-[(6S)-2,4-dimethyl-5-oxo-7,8-dihydro-6H-pyrazolo[1,5-a][1,3]diazepin-6-yl]-1-tetrahydropyran-4-yl-pyrazolo[3,4-d]pyrimidine-6-carboxamide], 570 nM; as for `Cc1cc2n(n1)CC[C@H](NC(=O)c1ncn(CC3(C)CCC3)n1)C(=O)N2C` [Example 560, 1-[(1-methylcyclobutyl)methyl]-N-(6S)-2,4-dimethyl-5-oxo-7,8-dihydro-6H-pyrazolo[1,5-a][1,3]diazepin-6-yl-1,2,4-triazole-3-carboxamide], 140 nM. Consider `CN1C(=O)[C@@H](NC(=O)c2ncn(CC3(C)CCC3)n2)CCn2nc(C3CC3)cc21` [Example 561], for which the Ki was found to be 100 nM. The same measure, in the same setting: the figure for `CN1C(=O)[C@@H](NC(=O)c2nc3n(n2)CCOC32CCCC2)COc2ccccc21` [Example 562, N-[(3S)-5-methyl-4-oxo-2,3-dihydro-1,5-benzoxazepin-3-yl]spiro[5,6-dihydro-[1,2,4]triazolo[5,1-c][1,4]oxazine-8,1′-cyclopentane]-2-carboxamide] is 20 nM; for `CN1C(=O)[C@@H](NC(=O)c2ncc3cnn(C4CCCOC4)c3n2)COc2ccccc21` (stereo partly drawn) [Example 563, N-[(3S)-5-methyl-4-oxo-2,3-dihydro-1,5-benzoxazepin-3-yl]-1-tetrahydropyran-3-yl-pyrazolo[3,4-d]pyrimidine-6-carboxamide] it is 54 nM; for `CCCC1(C)OCc2cnc(C(=O)N[C@H]3CCn4nc(C)cc4N(C)C3=O)nc21` (stereo partly drawn) [Example 564, 7-methyl-7-propyl-N-[(6S)-2,4-dimethyl-5-oxo-7,8-dihydro-6H-pyrazolo[1,5-a][1,3]diazepin-6-yl]-5H-furo[3,4-d]pyrimidine-2-carboxamide] it is 590 nM. The same measure, in the same setting: as for `CN1C(=O)[C@@H](NC(=O)c2ncc3c(n2)C2(CCCC2)OC3)CCn2nccc21` [Example 565, N-[(6S)-4-methyl-5-oxo-7,8-dihydro-6H-pyrazolo[1,5-a][1,3]diazepin-6-yl]spiro[5H-furo [3,4-d]pyrimidine-7,1′-cyclopentane]-2-carboxamide], the figure is 70 nM; as for `CCCC1(C)OCc2cnc(C(=O)N[C@H]3CCn4nccc4N(C)C3=O)nc21` (stereo partly drawn) [Example 566, 7-methyl-7-propyl-N-[(6S)-4-methyl-5-oxo-7,8-dihydro-6H-pyrazolo[1,5-a][1,3]diazepin-6-yl]-5H-furo[3,4-d]pyrimidine-2-carboxamide], 480 nM; as for `Cc1cc2n(n1)CC[C@H](NC(=O)c1nc3n(n1)CCOC31CCCC1)C(=O)N2C` [Example 567, N-[(6S)-2,4-dimethyl-5-oxo-7,8-dihydro-6H-pyrazolo[1,5-a][1,3]diazepin-6-yl]spiro[5,6-dihydro-[1,2,4]triazolo[5,1-c][1,4]oxazine-8,1′-cyclopentane]-2-carboxamide], 410 nM.
